In US20240343692A1 (priority 2021, published 2024):
Where two headings read alike, the source gives them in different places. Marks after values point to notes of the source that are not given here.

What was measured:
[1] = molecular target: T1, Muscarinic M5 (Homo sapiens, UniProt P08912); assay: CNS receptor radioligand binding, Muscarinic M5; conditions: 10 μM
T1 sequence (P08912 1-532): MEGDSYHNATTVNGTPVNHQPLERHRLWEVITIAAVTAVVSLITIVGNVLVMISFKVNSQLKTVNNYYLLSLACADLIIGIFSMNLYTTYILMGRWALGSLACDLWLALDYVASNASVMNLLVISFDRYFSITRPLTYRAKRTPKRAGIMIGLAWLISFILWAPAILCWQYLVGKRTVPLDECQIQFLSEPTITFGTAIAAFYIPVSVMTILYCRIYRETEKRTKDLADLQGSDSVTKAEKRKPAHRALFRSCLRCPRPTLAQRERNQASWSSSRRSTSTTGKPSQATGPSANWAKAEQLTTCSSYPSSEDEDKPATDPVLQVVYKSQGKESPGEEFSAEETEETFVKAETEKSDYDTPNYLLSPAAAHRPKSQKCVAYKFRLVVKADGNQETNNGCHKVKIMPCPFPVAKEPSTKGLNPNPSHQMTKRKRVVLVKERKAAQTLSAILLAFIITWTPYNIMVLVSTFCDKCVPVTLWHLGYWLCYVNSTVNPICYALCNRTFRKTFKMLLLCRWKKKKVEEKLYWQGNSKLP

[2] = molecular target: T2, Nicotinic Acetylcholine α4β2 (Homo sapiens, UniProt P17787+P43681); assay: CNS receptor radioligand binding, Nicotinic Acetylcholine α4β2; conditions: 10 μM
[3] = molecular target: Serotonin 5-HT2B (Homo sapiens, UniProt P41595); assay: Receptor activation potency, Serotonin 5-HT2B; assay type: biochemical; conditions: 5-point concentration response curves, duplicate
[4] = molecular target: Histamine H1 (Homo sapiens, UniProt P35367); assay: CNS receptor radioligand binding, Histamine H1 (human); conditions: 10 μM
[5] = molecular target: T3, Serotonin 5-HT2A (Homo sapiens, UniProt P28223); assay: CNS receptor radioligand binding, Serotonin 5-HT2A
[6] = molecular target: T4, Sigma-1 (Homo sapiens, UniProt Q99720); assay: Inhibition constant, Sigma-1; assay type: binding; conditions: human receptor; 5-point concentration response curves; duplicate; read-out: inhibition constants Ki, Sigma-1
[7] = molecular target: T5, Muscarinic M2 (Homo sapiens, UniProt P08172); assay: CNS receptor radioligand binding, Muscarinic M2; conditions: 10 μM
T5 sequence (P08172 1-466): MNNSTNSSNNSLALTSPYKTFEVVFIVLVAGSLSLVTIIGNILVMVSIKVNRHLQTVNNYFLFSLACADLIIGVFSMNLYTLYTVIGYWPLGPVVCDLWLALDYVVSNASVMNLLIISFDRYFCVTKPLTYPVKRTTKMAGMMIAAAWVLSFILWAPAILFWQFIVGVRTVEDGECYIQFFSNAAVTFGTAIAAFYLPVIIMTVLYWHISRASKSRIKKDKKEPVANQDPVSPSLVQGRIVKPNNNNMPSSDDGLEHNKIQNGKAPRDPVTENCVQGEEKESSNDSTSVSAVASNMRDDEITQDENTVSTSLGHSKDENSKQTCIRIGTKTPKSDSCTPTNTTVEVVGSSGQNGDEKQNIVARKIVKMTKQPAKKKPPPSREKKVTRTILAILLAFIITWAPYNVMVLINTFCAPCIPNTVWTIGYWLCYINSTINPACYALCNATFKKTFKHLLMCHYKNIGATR

[8] = molecular target: T6, Serotonin 5-HT1A (Homo sapiens, UniProt P08908); assay: Receptor activation potency, Serotonin 5-HT1A; assay type: biochemical; conditions: 5-point concentration response curves, duplicate
T6 sequence (P08908 1-422): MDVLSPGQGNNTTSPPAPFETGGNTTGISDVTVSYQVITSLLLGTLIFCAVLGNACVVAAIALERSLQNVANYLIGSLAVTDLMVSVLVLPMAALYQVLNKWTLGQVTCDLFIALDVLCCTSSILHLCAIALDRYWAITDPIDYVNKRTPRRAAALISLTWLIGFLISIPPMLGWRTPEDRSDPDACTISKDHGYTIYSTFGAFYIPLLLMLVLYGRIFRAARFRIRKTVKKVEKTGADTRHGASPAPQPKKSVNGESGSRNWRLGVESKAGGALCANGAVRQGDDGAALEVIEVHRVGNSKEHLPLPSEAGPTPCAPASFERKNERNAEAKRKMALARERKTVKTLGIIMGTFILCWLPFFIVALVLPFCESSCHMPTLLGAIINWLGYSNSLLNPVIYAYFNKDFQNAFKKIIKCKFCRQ

[9] = molecular target: T7, Opiate κ (Homo sapiens, UniProt P41145); assay: CNS receptor radioligand binding, Opiate κ; conditions: 10 μM
[10] = molecular target: T8, Dopamine D1 (Homo sapiens, UniProt P21728); assay: CNS receptor radioligand binding, Dopamine D1; conditions: 10 μM
[11] = molecular target: T6, Serotonin 5-HT1A; assay: CNS receptor radioligand binding, Serotonin 5-HT1A
[12] = molecular target: T9, Dopamine D2L (Homo sapiens, UniProt P14416); assay: CNS receptor radioligand binding, Dopamine D2L; conditions: 10 μM
[13] = molecular target: T3, Serotonin 5-HT2A; assay: Receptor activation potency, Serotonin 5-HT2A; assay type: biochemical; conditions: 5-point concentration response curves, duplicate
[14] = molecular target: T10, Dopamine D3 (Homo sapiens, UniProt P35462); assay: CNS receptor radioligand binding, Dopamine D3
[15] = molecular target: T11, Serotonin 5-HT2C (Homo sapiens, UniProt P28335); assay: Receptor activation potency, Serotonin 5-HT2C; assay type: biochemical; conditions: 5-point concentration response curves, duplicate
T11 sequence (P28335 33-458): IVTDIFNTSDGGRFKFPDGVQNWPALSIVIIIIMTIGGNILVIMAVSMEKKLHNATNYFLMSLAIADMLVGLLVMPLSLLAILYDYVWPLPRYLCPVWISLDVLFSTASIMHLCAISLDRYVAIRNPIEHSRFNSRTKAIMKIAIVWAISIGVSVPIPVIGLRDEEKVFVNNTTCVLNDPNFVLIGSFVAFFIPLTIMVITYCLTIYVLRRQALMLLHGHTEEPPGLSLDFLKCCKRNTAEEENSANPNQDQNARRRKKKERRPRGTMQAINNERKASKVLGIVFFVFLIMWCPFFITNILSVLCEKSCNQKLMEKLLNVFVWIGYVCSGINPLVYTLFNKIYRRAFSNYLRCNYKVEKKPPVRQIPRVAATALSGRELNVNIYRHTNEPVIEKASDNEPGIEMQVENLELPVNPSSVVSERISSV

[16] = system: Adrenergic α1; assay: CNS receptor radioligand binding, Adrenergic α1; conditions: 10 μM; rat receptor data
[17] = molecular target: T12, Orexin OX1 (Homo sapiens, UniProt O43613); assay: CNS receptor radioligand binding, Orexin OX1; conditions: 10 μM
T12 sequence (O43613 1-425): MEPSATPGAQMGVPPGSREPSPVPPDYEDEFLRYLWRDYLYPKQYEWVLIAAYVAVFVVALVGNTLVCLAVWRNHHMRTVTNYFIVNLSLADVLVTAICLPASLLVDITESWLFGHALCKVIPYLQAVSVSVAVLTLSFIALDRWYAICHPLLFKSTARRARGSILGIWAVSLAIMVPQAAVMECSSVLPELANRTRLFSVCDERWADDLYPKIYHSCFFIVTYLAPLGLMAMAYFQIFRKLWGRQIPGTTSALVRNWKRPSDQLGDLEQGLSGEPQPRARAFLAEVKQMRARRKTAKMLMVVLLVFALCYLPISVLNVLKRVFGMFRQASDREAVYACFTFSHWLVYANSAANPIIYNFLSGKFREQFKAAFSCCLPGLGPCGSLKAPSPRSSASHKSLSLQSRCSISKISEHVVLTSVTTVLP

[18] = system: GABAA; assay: CNS receptor radioligand binding, GABAA; conditions: 10 μM; rat receptor data
[19] = molecular target: T1, Muscarinic M5; conditions: 10 μM; data from ref. 34; cited from earlier work
[20] = molecular target: T5, Muscarinic M2; conditions: 10 μM; data from ref. 34; cited from earlier work
[21] = system: GABAA; conditions: 10 μM; rat receptor data; data from ref. 34; cited from earlier work
[22] = molecular target: T2, Nicotinic Acetylcholine α4β2; conditions: 10 μM; data from ref. 34; cited from earlier work
[23] = system: Adrenergic α1; conditions: 10 μM; rat receptor data; data from ref. 35; cited from earlier work
[24] = molecular target: T7, Opiate κ; conditions: 10 μM; data from ref. 34; cited from earlier work
[25] = molecular target: T3, Serotonin 5-HT2A; conditions: 10 μM; data from ref. 34; cited from earlier work
[26] = molecular target: T8, Dopamine D1; conditions: 10 μM; data from ref. 34; cited from earlier work
[27] = molecular target: T9, Dopamine D2L; conditions: 10 μM; data from ref. 34; cited from earlier work
[28] = molecular target: T10, Dopamine D3; conditions: 10 μM; data from ref. 34; cited from earlier work
[29] = molecular target: T3, Serotonin 5-HT2A; conditions: data from ref. 36; read-out: activation potency EC50, Serotonin 5-HT2A; cited from earlier work
[30] = molecular target: T4, Sigma-1
[31] = molecular target: T6, Serotonin 5-HT1A; conditions: read-out: inhibition constants Ki, Serotonin 5-HT1A; data from ref. 36; cited from earlier work

T3 sequence (P28223 whole entry, looked up): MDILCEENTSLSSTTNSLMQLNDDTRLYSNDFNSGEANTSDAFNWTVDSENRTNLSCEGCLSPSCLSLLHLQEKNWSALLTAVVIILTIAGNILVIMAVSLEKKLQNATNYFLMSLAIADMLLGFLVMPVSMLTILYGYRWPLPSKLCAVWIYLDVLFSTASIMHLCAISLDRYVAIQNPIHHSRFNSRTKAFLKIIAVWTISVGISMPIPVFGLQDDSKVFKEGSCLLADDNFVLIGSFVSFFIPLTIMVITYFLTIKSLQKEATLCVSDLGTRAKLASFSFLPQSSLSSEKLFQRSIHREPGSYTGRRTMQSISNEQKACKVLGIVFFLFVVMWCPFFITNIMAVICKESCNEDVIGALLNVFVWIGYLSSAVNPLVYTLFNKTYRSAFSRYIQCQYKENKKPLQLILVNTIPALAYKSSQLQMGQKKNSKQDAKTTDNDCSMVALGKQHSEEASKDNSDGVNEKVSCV
T4 sequence (Q99720 whole entry): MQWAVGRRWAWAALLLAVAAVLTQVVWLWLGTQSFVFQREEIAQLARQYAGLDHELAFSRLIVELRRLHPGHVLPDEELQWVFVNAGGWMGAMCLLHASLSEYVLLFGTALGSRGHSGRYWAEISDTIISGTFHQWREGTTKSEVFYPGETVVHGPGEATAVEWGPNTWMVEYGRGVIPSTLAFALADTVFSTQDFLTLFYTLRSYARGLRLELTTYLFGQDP
T7 sequence (P41145 whole entry): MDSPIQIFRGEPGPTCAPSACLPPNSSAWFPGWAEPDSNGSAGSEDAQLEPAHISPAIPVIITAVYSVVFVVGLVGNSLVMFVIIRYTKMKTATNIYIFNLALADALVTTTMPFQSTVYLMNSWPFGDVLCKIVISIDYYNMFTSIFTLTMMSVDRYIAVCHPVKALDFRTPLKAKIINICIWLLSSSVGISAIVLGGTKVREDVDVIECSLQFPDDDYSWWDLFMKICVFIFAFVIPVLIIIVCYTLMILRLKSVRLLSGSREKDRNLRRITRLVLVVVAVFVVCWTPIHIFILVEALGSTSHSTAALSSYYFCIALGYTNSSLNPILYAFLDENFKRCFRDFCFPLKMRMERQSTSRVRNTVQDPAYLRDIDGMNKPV
T2 sequence (P43681 29-627 limits assumed): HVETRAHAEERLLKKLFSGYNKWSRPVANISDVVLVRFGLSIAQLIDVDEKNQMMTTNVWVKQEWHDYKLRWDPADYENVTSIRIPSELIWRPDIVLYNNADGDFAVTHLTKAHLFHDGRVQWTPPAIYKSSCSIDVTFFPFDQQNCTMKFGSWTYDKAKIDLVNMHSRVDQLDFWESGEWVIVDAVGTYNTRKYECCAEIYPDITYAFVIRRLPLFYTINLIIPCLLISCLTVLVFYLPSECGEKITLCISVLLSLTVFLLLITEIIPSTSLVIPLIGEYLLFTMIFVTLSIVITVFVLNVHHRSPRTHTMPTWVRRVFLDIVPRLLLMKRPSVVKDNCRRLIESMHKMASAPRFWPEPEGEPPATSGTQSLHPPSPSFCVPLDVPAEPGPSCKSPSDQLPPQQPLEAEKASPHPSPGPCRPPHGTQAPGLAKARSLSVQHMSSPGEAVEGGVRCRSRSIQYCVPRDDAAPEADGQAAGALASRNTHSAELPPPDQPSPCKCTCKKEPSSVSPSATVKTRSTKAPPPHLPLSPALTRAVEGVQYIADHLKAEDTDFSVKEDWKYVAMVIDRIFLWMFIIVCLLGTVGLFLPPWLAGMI
T2 sequence (P17787 26-502): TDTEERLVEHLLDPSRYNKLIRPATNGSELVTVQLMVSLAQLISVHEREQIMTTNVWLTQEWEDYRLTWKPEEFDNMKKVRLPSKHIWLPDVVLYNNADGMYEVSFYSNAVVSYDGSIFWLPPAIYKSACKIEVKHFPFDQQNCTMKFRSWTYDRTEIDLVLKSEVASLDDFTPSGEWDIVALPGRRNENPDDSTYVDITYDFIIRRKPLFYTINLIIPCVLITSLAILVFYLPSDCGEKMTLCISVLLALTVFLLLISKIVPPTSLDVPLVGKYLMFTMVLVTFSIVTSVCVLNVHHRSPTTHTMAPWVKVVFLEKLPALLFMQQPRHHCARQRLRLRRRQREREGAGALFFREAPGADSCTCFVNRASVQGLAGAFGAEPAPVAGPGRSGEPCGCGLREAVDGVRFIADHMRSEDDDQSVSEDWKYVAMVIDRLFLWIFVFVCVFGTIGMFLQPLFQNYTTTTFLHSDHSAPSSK
T10 sequence (P35462 whole entry): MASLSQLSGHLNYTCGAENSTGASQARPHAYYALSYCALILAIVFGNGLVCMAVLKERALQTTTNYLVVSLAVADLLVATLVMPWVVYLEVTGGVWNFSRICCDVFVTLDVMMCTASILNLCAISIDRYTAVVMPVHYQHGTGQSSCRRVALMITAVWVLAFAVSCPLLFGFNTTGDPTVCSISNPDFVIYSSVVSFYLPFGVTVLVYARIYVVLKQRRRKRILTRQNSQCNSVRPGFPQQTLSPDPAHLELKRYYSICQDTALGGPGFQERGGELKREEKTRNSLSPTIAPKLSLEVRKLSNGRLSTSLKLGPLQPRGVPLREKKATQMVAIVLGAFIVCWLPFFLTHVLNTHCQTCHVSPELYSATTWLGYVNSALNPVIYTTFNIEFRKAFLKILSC
T8 sequence (P21728 whole entry): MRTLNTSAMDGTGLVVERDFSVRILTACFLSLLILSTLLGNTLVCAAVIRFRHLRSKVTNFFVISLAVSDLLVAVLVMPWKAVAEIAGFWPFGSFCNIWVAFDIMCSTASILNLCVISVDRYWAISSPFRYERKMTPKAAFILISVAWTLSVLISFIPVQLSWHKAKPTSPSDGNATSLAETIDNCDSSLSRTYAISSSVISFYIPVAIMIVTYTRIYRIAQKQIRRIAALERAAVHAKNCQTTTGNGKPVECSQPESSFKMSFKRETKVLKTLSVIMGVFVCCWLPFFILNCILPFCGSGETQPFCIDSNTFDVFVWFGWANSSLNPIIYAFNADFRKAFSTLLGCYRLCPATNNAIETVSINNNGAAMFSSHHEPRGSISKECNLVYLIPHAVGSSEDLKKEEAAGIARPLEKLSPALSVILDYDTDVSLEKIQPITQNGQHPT
T9 sequence (P14416 whole entry): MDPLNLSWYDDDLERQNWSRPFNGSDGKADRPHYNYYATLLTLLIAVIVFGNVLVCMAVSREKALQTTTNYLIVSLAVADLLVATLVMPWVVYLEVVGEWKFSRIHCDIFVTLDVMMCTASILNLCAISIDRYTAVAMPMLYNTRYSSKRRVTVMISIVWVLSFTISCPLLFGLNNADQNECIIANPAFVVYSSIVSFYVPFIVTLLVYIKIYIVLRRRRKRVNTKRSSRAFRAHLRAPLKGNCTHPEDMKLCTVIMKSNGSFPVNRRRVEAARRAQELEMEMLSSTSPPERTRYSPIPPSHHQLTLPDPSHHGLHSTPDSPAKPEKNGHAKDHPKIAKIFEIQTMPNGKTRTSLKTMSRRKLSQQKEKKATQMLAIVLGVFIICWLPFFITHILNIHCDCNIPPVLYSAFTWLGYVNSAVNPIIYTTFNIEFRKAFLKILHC
Histamine H1, sequence (P35367 whole entry): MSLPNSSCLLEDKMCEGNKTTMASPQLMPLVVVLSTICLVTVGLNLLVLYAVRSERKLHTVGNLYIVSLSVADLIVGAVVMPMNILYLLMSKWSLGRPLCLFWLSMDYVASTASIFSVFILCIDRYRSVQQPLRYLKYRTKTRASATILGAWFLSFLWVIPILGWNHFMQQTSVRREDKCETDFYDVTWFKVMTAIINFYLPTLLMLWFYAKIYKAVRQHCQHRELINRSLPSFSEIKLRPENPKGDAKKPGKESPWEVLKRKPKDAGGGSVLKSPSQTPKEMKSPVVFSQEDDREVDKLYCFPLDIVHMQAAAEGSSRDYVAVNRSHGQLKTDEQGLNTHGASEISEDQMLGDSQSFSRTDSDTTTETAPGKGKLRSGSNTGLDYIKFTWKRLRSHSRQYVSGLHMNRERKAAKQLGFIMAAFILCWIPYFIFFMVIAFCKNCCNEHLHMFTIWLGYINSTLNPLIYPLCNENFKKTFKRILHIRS
Serotonin 5-HT2B, sequence (P41595 whole entry): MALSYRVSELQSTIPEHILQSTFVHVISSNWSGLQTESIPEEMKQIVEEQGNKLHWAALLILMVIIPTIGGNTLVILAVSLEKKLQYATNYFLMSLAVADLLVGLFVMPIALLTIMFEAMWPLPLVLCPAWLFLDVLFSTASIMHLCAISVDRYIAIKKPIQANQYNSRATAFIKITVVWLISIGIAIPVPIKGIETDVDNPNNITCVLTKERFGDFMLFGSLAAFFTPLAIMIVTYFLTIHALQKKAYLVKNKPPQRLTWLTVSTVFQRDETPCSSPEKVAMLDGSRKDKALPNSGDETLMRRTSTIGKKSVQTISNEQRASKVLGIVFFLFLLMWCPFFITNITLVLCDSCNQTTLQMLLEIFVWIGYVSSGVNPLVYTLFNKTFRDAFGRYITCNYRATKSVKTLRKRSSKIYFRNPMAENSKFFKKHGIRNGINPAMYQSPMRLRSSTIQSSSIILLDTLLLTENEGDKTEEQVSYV

(−)-Cycloclavine
Percent Inhibition of Specific Binding of a Radioligand Standard, Muscarinic M5 [1]: 15 % inh
Percent Inhibition of Specific Binding of a Radioligand Standard, Nicotinic Acetylcholine α4β2 [2]: 11 % inh
EC50 [3]: > 20 µM
Percent Inhibition of Specific Binding of a Radioligand Standard, Histamine H1 [4]: 27 % inh
Percent Inhibition of Specific Binding of a Radioligand Standard, Serotonin 5-HT2A ([5]; 1 μM): 51 % inh
Percent Inhibition of Specific Binding of a Radioligand Standard, Serotonin 5-HT2A ([5]; 10 μM): 89 % inh
Ki [6]: 8.3 µM
Percent Inhibition of Specific Binding of a Radioligand Standard, Muscarinic M2 [7]: 0 % inh
EC50 [8]: ~5 µM
Percent Inhibition of Specific Binding of a Radioligand Standard, Opiate κ [9]: 75 % inh
Percent Inhibition of Specific Binding of a Radioligand Standard, Dopamine D1 [10]: 30 % inh
Percent Inhibition of Specific Binding of a Radioligand Standard, Serotonin 5-HT1A ([11]; 1 μM): 73 % inh
Percent Inhibition of Specific Binding of a Radioligand Standard, Serotonin 5-HT1A ([11]; 10 μM): 91 % inh
Percent Inhibition of Specific Binding of a Radioligand Standard, Dopamine D2L [12]: 14 % inh
EC50 [13]: > 50 µM
Percent Inhibition of Specific Binding of a Radioligand Standard, Dopamine D3 ([14]; 1 μM): 32 % inh
Percent Inhibition of Specific Binding of a Radioligand Standard, Dopamine D3 ([14]; 10 μM): 64 % inh
EC50 [15]: 3.2 µM
Percent Inhibition of Specific Binding of a Radioligand Standard, Adrenergic α1 [16]: 59 % inh
Percent Inhibition of Specific Binding of a Radioligand Standard, Orexin OX1 [17]: 6 % inh
Percent Inhibition of Specific Binding of a Radioligand Standard, GABAA [18]: 0 % inh

CCN(CC)C(=O)[C@@H]1C=C2c3cccc4[nH]cc(c34)C[C@H]2N(C)C1 [D-LSD, D-lysergic acid diethylamide]
Percent Inhibition of Specific Binding of a Radioligand Standard, Muscarinic M5 [19]: 15 % inh
Percent Inhibition of Specific Binding of a Radioligand Standard, Muscarinic M2 [20]: 2 % inh
Percent Inhibition of Specific Binding of a Radioligand Standard, GABAA [21]: 0 % inh
Percent Inhibition of Specific Binding of a Radioligand Standard, Nicotinic Acetylcholine α4β2 [22]: 0 % inh
Percent Inhibition of Specific Binding of a Radioligand Standard, Adrenergic α1 [23]: 100^d % inh
Percent Inhibition of Specific Binding of a Radioligand Standard, Opiate κ [24]: 29 % inh
Percent Inhibition of Specific Binding of a Radioligand Standard, Serotonin 5-HT2A [25]: 93 % inh
Percent Inhibition of Specific Binding of a Radioligand Standard, Dopamine D1 [26]: 93 % inh
Percent Inhibition of Specific Binding of a Radioligand Standard, Dopamine D2L [27]: 85 % inh
Percent Inhibition of Specific Binding of a Radioligand Standard, Dopamine D3 [28]: 78 % inh

CN(C)CCc1c[nH]c2ccccc12 [DMT]
EC50 [29]: 0.076 µM
Ki ([30]; data from ref. 37; read-out: inhibition constants Ki, Sigma-1; cited from earlier work): 5.2 µM

(+)-Cycloclavine
Percent Inhibition of Specific Binding of a Radioligand Standard, Muscarinic M5 [1]: 11 % inh
Percent Inhibition of Specific Binding of a Radioligand Standard, Nicotinic Acetylcholine α4β2 [2]: 9 % inh
EC50 [3]: > 20 µM
Percent Inhibition of Specific Binding of a Radioligand Standard, Histamine H1 [4]: 17 % inh
Percent Inhibition of Specific Binding of a Radioligand Standard, Serotonin 5-HT2A ([5]; 1 μM): 100 % inh
Percent Inhibition of Specific Binding of a Radioligand Standard, Serotonin 5-HT2A ([5]; 10 μM): 100 % inh
Ki [6]: ~50 µM
Percent Inhibition of Specific Binding of a Radioligand Standard, Muscarinic M2 [7]: 0 % inh
EC50 [8]: 0.14 µM
Percent Inhibition of Specific Binding of a Radioligand Standard, Opiate κ [9]: 73 % inh
Percent Inhibition of Specific Binding of a Radioligand Standard, Dopamine D1 [10]: 91 % inh
Percent Inhibition of Specific Binding of a Radioligand Standard, Serotonin 5-HT1A ([11]; 1 μM): 97 % inh
Percent Inhibition of Specific Binding of a Radioligand Standard, Serotonin 5-HT1A ([11]; 10 μM): 97 % inh
Percent Inhibition of Specific Binding of a Radioligand Standard, Dopamine D2L [12]: 81 % inh
EC50 [13]: ~10 µM
Percent Inhibition of Specific Binding of a Radioligand Standard, Dopamine D3 ([14]; 1 μM): 75 % inh
Percent Inhibition of Specific Binding of a Radioligand Standard, Dopamine D3 ([14]; 10 μM): 93 % inh
EC50 [15]: 0.016 µM
Percent Inhibition of Specific Binding of a Radioligand Standard, Adrenergic α1 [16]: 57 % inh
Percent Inhibition of Specific Binding of a Radioligand Standard, Orexin OX1 [17]: 23 % inh
Percent Inhibition of Specific Binding of a Radioligand Standard, GABAA [18]: 9 % inh

CN(C)CCc1c[nH]c2cccc(O)c12 [Psilocin]
Ki [31]: 0.123 µM
Ki ([30]; read-out: inhibition constants Ki, Sigma-1; data from ref. 37; cited from earlier work): > 10 µM
